Laboratory results taken from patent US4578392A, “Pyrazolo[1,5-a]pyridine derivatives and anti-allergic compositions containing them” (Kyorin Pharmaceutical Co., Ltd., priority 1983, dated 1986).

Key:
[1] = test system: SRS-A-induced component of anaphylactic bronchoconstriction; experiment: Inhibitory activity on bronchial anaphylaxis in conscious guinea pigs (SRS-A preferentially involved in bronchoconstriction); format: in vivo, guinea pig; details: Cavia porcellus; oral; actively sensitized (egg albumin) conscious guinea pigs, 10 mg/kg diphenhydramine intraperitoneally, inhaled antigen; read-out: ED75 (oral dose required to protect 75% of animals from respiratory distress caused by antigen challenge)
Protocol: The effect of the compounds of this invention on bronchial anaphylactic reaction in vivo was evaluated using conscious guinea pigs in a condition where SRS-A was preferentially involved in bronchoconstriction (Boot, J. R. et al.: Int. Arch. Allergy Appl. Immunol. 67, 340 (1982)). The guinea pigs which had been sensitized actively with egg albumin 3 to 4 weeks prior were given intraperitoneally with 10 mg/kg diphenhydramine. In these animals, inhaled antigen caused a marked respiratory distress due to bronchoconstriction. The ED75 values in Table 7 indicate the oral dose of test compound required to protect 75% of animals from respiratory distress caused by antigen challenge.

SRS-A = experiment: Antagonistic action against SRS-A (SRS-A induced contraction of isolated guinea pig ileum); details: 3 U/ml SRS-A, 5 minutes incubation, tripelennamine and atropine in Tyrode solution
Protocol: The anti-SRS-A action of the compounds of this invention was evaluated using isolated guinea pig ileum. Short segments of guinea pig terminal ileum were suspended in Tyrode solution containing tripelennamine (3×10^-7 g/ml) and atropine (3×10^-7 g/ml) and their contractions induced by an addition to the organ bath of 3 U/ml SRS-A* were recorded. The ileum was again contracted after incubation with test compounds for 5 minutes by adding the same amount of SRS-A. The anti-SRS-A action is given in Table 6 as IC50 values which indicate the concentration of test compound required to inhibit SRS-A induced ileal contraction by 50%.
*: The SRS-A used in this experiment was prepared from anaphylactic guinea pig lungs. One unit of SRS-A refers to the amount required to produce a contraction of the guinea pig ileum equal in amplitude to that produced by 5 ng histamine base.

Row | Antagonistic activity against SRS-A IC50 (SRS-A) [µg/mL] | Structure (SMILES) | ED75 [1] [mg/kg]
1 |  | Cn1c(=O)c2[nH]cnc2n(C)c1=O [Aminophylline, reference compound] | 3.5
2 | 1.75 | CC(C)c1nn2ccccc2c1C(O)C(C)C (centres unmarked) [Example 5, 2-Isopropyl-3-(1-hydroxy-2-methylpropyl)pyrazolo[1,5-a]pyridine] | 0.48
3 | 10.3 | CC(C)c1nn2ccccc2c1C(O)C1CCCC1 (centres unmarked) [Example 6] | 
4 | 27 | CCC(O)c1c(C(C)C)nn2ccccc12 (centres unmarked) [Example 8, 2-isopropyl-3-(1-hydroxypropyl)pyrazolo[1,5-a]pyridine] | 
5 | 26.8 | CCCC(O)c1c(C(C)C)nn2ccccc12 (centres unmarked) [Example 9] | 
6 | 10.3 | Cc1nn2ccccc2c1C(O)C(C)C (centres unmarked) [Example 10] | 
7 | 16.4 | CCCc1nn2ccccc2c1C(O)CCC (centres unmarked) [Example 11] | 
8 | 4.9 | COc1ccc2c(C(O)C(C)C)c(C(C)C)nn2c1 (centres unmarked) [Example 13] | 0.5
9 | 1.75 | CCC(O)(c1c(C(C)C)nn2ccccc12)C(C)C (centres unmarked) [Example 15, 2-Isopropyl-3-(1-hydroxy-1-ethyl-2-methylpropyl)pyrazolo[1,5-a]pyridine] | 0.68
10 | 23.5 | CC(C)c1nn2ccccc2c1C(C)(O)C(C)C (centres unmarked) [Example 16] | 
11 | 2.03 | CCCC(O)(c1c(C(C)C)nn2ccccc12)C(C)C (centres unmarked) [Example 17] | 0.75
12 | 0.84 | CCCCC(O)(c1c(C(C)C)nn2ccccc12)C(C)C (centres unmarked) [Example 18] | 0.5
13 | 2.14 | CCCCCCC(O)(c1c(C(C)C)nn2ccccc12)C(C)C (centres unmarked) [Example 19] | 
14 | 1.51 | C=CCC(O)(c1c(C(C)C)nn2ccccc12)C(C)C (centres unmarked) [Example 20] | 0.5
15 | 6.6 | COC(c1c(C(C)C)nn2ccccc12)C(C)C (centres unmarked) [Example 21, 2-Isopropyl-3-(1-methoxy-2-methylpropyl)pyrazolo[1,5-a]pyridine] | 0.36
16 | 7.2 | CCOC(c1c(C(C)C)nn2ccccc12)C(C)C (centres unmarked) [Example 22] | 
17 | 1.06 | C=CCOC(c1c(C(C)C)nn2ccccc12)C(C)C (centres unmarked) [Example 23] | 0.5
18 | 5.09 | CCCOC(c1c(C(C)C)nn2ccccc12)C(C)C (centres unmarked) [Example 24] | 
19 | 9.98 | CCCCOC(c1c(C(C)C)nn2ccccc12)C(C)C (centres unmarked) [Example 25] | 

Row | Antagonistic activity against SRS-A IC50 (SRS-A) [µg/mL] | Structure (SMILES) | ED75 [1] [mg/kg]
20 | 18.4 | COC(c1c(C(C)C)nn2cc(C)ccc12)C(C)C (centres unmarked) [Example 26] | 
21 | 3.93 | C=CCOC(c1c(C(C)C)nn2cc(C)ccc12)C(C)C (centres unmarked) [Example 27] | 
22 | 7.36 | COc1ccc2c(C(OC)C(C)C)c(C(C)C)nn2c1 (centres unmarked) [Example 28] | 
23 | 3.84 | C=CCOC(c1c(C(C)C)nn2cc(OC)ccc12)C(C)C (centres unmarked) [Example 29] | 
24 | 1.52 | CCC(OC)(c1c(C(C)C)nn2ccccc12)C(C)C (centres unmarked) [Example 30] | 1
25 | 0.27 | C=CCOC(CC)(c1c(C(C)C)nn2ccccc12)C(C)C (centres unmarked) [Example 31, 2-isopropyl-3-(1-allyloxy-1-ethyl-2-methylpropyl)pyrazolo[1,5-a]pyridine] | 0.5
26 | 0.52 | C=CCOC(CCC)(c1c(C(C)C)nn2ccccc12)C(C)C (centres unmarked) [Example 32] | 2
27 | 2.36 | C=CCOC(CCCC)(c1c(C(C)C)nn2ccccc12)C(C)C (centres unmarked) [Example 33] | 
28 | 7.33 | CC(C)c1nn2ccccc2c1C(OCC1CO1)C(C)C (centres unmarked) [Example 34, 2-isopropyl-3-[1-(2,3-epoxypropoxy)-2-methylpropyl]pyrazolo[1,5-a]pyridine] | 
29 | 1.23 | CCCOC(CC)(c1c(C(C)C)nn2ccccc12)C(C)C (centres unmarked) [Example 35, 2-Isopropyl-3-(1-ethyl-1-propoxy-2-methylpropyl)pyrazolo[1,5-a]pyridine] | 0.5
30 | 14.9 | CC(O)COC(c1c(C(C)C)nn2ccccc12)C(C)C (centres unmarked) [Example 36, 2-Isopropyl-3-[1-(2-hydroxypropoxy)-2-methylpropyl]pyrazolo[1,5-a]pyridine] | 
31 | 14.7 | COCc1c(C(C)C)nn2ccccc12 [Example 37, 2-Isopropyl-3-methoxymethylpyrazolo[1,5-a]pyridine] | 
32 | 2.8 | CCCc1c(C(C)C)nn2ccccc12 [Example 39, 2-Isopropyl-3-propylpyrazolo[1,5-a]pyridine] | 
33 | 2.7 | CC(C)=Cc1c(C(C)C)nn2ccccc12 [Example 40] | 
34 | 2.45 | C=C(c1c(C(C)C)nn2ccccc12)C(C)C [Example 41] | 
35 | 0.44 | CC=C(c1c(C(C)C)nn2ccccc12)C(C)C [Example 42] | 
36 | 2.7 | CC(C)Cc1c(C(C)C)nn2ccccc12 [Example 43] | 
37 | 1.6 | CC(C)c1nn2ccccc2c1C(C)C(C)C (centres unmarked) [Example 44] | 0.5
